Source: PubChem BioAssay AID328 (DTP/NCI, 2004)
Values joined by “and” are separate entries in the source; they are usually repeats but may differ in a detail not shown here. Identical values can stand only once. Inconclusive results and toxic doses are left out. Residues, ends and D or L forms follow the SMILES beside them. *: point of attachment. Bn = c1ccc(C*)cc1; For = O=C*

Test system: BDF1 mice, P388 leukemia ip, median survival T/C
Test: NCI In Vivo Anticancer Drug Screen. Data for tumor model P388 Leukemia (intraperitoneal) in B6D2F1 (BDF1) mice
Conditions: endpoint: median survival time, higher = longer survival
In short: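 T/C = treated-group survival ÷ vehicle-control survival; tumour transplanted into mice before dosing.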

[1] = dose: 50.0 mg/kg/injection, schedule: Q01DX009 (ip), vehicle: Klucel (hydroxypropylcellulose) (HPC)
[2] = dose: 100.0 mg/kg/injection, schedule: Q01DX009 (ip), vehicle: Klucel (hydroxypropylcellulose) (HPC)
[3] = dose: 200.0 mg/kg/injection, schedule: Q01DX009 (ip), vehicle: Klucel (hydroxypropylcellulose) (HPC)
[4] = dose: 100.0 mg/kg/injection, schedule: Q01DX009 (ip), vehicle: other
[5] = dose: 200.0 mg/kg/injection, schedule: Q01DX009 (ip), vehicle: other
[6] = dose: 400.0 mg/kg/injection, schedule: Q01DX009 (ip), vehicle: other
[7] = dose: 100.0 mg/kg/injection, schedule: Q04DX003 (ip), vehicle: Klucel (hydroxypropylcellulose) (HPC)
[8] = dose: 200.0 mg/kg/injection, schedule: Q04DX003 (ip), vehicle: Klucel (hydroxypropylcellulose) (HPC)
[9] = dose: 400.0 mg/kg/injection, schedule: Q01DX009 (ip), vehicle: Klucel (hydroxypropylcellulose) (HPC)
[10] = dose: 400.0 mg/kg/injection, schedule: Q04DX003 (ip), vehicle: Klucel (hydroxypropylcellulose) (HPC)
[11] = dose: 50.0 mg/kg/injection, schedule: Q01DX009 (ip), vehicle: saline with Tween-80
[12] = dose: 100.0 mg/kg/injection, schedule: Q01DX009 (ip), vehicle: saline with Tween-80
[13] = dose: 200.0 mg/kg/injection, schedule: Q01DX009 (ip), vehicle: saline with Tween-80
[14] = dose: 25.0 mg/kg/injection, schedule: Q01DX009 (ip), vehicle: saline with Tween-80
[15] = dose: 25.0 mg/kg/injection, schedule: Q04DX003 (ip), vehicle: saline with Tween-80
[16] = dose: 100.0 mg/kg/injection, schedule: Q04DX003 (ip), vehicle: saline with Tween-80
[17] = dose: 200.0 mg/kg/injection, schedule: Q04DX003 (ip), vehicle: saline with Tween-80
[18] = dose: 400.0 mg/kg/injection, schedule: Q01DX009 (ip), vehicle: saline with Tween-80
[19] = dose: 400.0 mg/kg/injection, schedule: Q04DX003 (ip), vehicle: saline with Tween-80

## BrCCN(CCBr)c1cccc(/C=C/c2ccccc2)c1
[1]
  T/C: 99 % of control
[2]
  T/C: 101 % of control
[3]
  T/C: 114 % of control

## CCCCn1cnc2c(SC)ncnc21
dose: 22.0 mg/kg/injection, schedule: Q04DX003 (ip), vehicle: saline
  T/C: 100 % of control
dose: 33.0 mg/kg/injection, schedule: Q04DX003 (ip), vehicle: saline
  T/C: 104 % of control
dose: 50.0 mg/kg/injection, schedule: Q01DX009 (ip), vehicle: saline
  T/C: 95 % of control
dose: 50.0 mg/kg/injection, schedule: Q04DX003 (ip), vehicle: saline
  T/C: 104 % of control
dose: 75.0 mg/kg/injection, schedule: Q04DX003 (ip), vehicle: saline
  T/C: 113 % of control
dose: 100.0 mg/kg/injection, schedule: Q01DX009 (ip), vehicle: saline
  T/C: 100 % of control
dose: 100.0 mg/kg/injection, schedule: Q04DX003 (ip), vehicle: saline
  T/C: 104 % of control
dose: 200.0 mg/kg/injection, schedule: Q01DX009 (ip), vehicle: saline
  T/C: 104 % of control
dose: 200.0 mg/kg/injection, schedule: Q04DX003 (ip), vehicle: saline
  T/C: 90 % of control

## CCCCCCCCCCC(=O)CCCCC
[4]
  T/C: 90 % of control
[5]
  T/C: 100 % of control
[6]
  T/C: 110 % of control

## COc1cc(/C=N/NC(=O)c2ccncc2)cc(OC)c1OC
[7]
  T/C: 104 % of control
[3]
  T/C: 122 % of control
[8]
  T/C: 109 % of control
[9]
  T/C: 122 % of control
[10]
  T/C: 100 % of control

## Cc1cc(N(CCCl)CCCl)ccc1C=Nc1cccnc1
[1]
  T/C: 100 % of control and 113 % of control
dose: 50.0 mg/kg/injection, schedule: Q04DX003 (ip), vehicle: Klucel (hydroxypropylcellulose) (HPC)
  T/C: 100 % of control
[2]
  T/C: 152 % of control
[7]
  T/C: 95 % of control
[3]
  T/C: 150 % of control and 156 % of control
[8]
  T/C: 120 % of control
[9]
  T/C: 169 % of control and 190 % of control
[10]
  T/C: 120 % of control

## CC1(C2CC(=O)c3c(O)ccc(O)c3C2)OCCO1 (centres undefined)
dose: 25.0 mg/kg/injection, schedule: Q01DX009 (ip), vehicle: other
  T/C: 107 % of control
dose: 50.0 mg/kg/injection, schedule: Q01DX009 (ip), vehicle: other
  T/C: 100 % of control
[4]
  T/C: 98 % of control
[5]
  T/C: 98 % of control
[6]
  T/C: 116 % of control

## N#CC(C#N)=C(C#N)C#N
dose: 0.78 mg/kg/injection, schedule: Q01DX009 (ip), vehicle: Klucel (hydroxypropylcellulose) (HPC)
  T/C: 90 % of control
dose: 1.56 mg/kg/injection, schedule: Q01DX009 (ip), vehicle: Klucel (hydroxypropylcellulose) (HPC)
  T/C: 100 % of control
dose: 1.56 mg/kg/injection, schedule: Q04DX003 (ip), vehicle: Klucel (hydroxypropylcellulose) (HPC)
  T/C: 100 % of control
dose: 3.13 mg/kg/injection, schedule: Q01DX009 (ip), vehicle: Klucel (hydroxypropylcellulose) (HPC)
  T/C: 100 % of control
dose: 3.13 mg/kg/injection, schedule: Q04DX003 (ip), vehicle: Klucel (hydroxypropylcellulose) (HPC)
  T/C: 100 % of control

## CN(c1ccccc1)c1nc(=O)c2cc3ccc(=O)oc3cc2o1
dose: 100.0 mg/kg/injection, schedule: Q04DX002 (ip), vehicle: saline with Tween-80
  T/C: 99 % of control
dose: 200.0 mg/kg/injection, schedule: Q04DX002 (ip), vehicle: saline with Tween-80
  T/C: 109 % of control
dose: 400.0 mg/kg/injection, schedule: Q04DX002 (ip), vehicle: saline with Tween-80
  T/C: 100 % of control

## CN(C)[C@@H]1C(=O)C(C(N)=O)=C(O)[C@]2(O)C(=O)C3C(=O)c4c(O)ccc(Cl)c4[C@](C)(O)[C@H]3C[C@@H]12 (some centres undefined)
dose: 33.0 mg/kg/injection, schedule: Q04DX003 (ip), vehicle: saline sonified
  T/C: 115 % of control

## CCCCCSC(=S)N(C)NC(=O)c1ccccn1
[11]
  T/C: 103 % of control
[12]
  T/C: 101 % of control
[13]
  T/C: 100 % of control

## CCCNC1(C(N)=O)CCN(Cc2ccccc2)CC1
[14]
  T/C: 107 % of control
[15]
  T/C: 104 % of control
[11]
  T/C: 111 % of control
dose: 50.0 mg/kg/injection, schedule: Q04DX003 (ip), vehicle: saline with Tween-80
  T/C: 86 % of control
[12]
  T/C: 96 % of control
[16]
  T/C: 95 % of control

## C[C@]12CC[C@H](O)C=C1CC[C@@H]1[C@@H]2CC[C@]2(C)C(c3ccc(=O)oc3)CC[C@]12O (some centres undefined)
dose: 6.25 mg/kg/injection, schedule: Q01DX009 (ip), vehicle: Klucel (hydroxypropylcellulose) (HPC)
  T/C: 96 % of control
dose: 12.5 mg/kg/injection, schedule: Q01DX009 (ip), vehicle: Klucel (hydroxypropylcellulose) (HPC)
  T/C: 86 % of control

## CCSc1ncnc2c1ncn2CN1CCOCC1
[14]
  T/C: 86 % of control
[11]
  T/C: 95 % of control
[12]
  T/C: 168 % of control
dose: 150.0 mg/kg/injection, schedule: Q01DX009 (ip), vehicle: saline
  T/C: 100 % of control
dose: 330.0 mg/kg/injection, schedule: Q01DX009 (ip), vehicle: saline
  T/C: 110 % of control

## CC(C)CC(NC(=O)C(Cc1ccc(OCc2ccccc2)cc1)NC=O)C(=O)O (centres undefined) (For-Tyr(Bn)-Leu-OH; configuration not given here)
[11]
  T/C: 110 % of control
[12]
  T/C: 95 % of control and 100 % of control (2×)
dose: 100.0 mg/kg/injection, schedule: Q01DX009 (ip), vehicle: sodium bicarbonate
  T/C: 90 % of control
[16]
  T/C: 105 % of control
[13]
  T/C: 86 % of control and 95 % of control and 110 % of control
dose: 200.0 mg/kg/injection, schedule: Q01DX009 (ip), vehicle: sodium bicarbonate
  T/C: 105 % of control
[17]
  T/C: 105 % of control
[18]
  T/C: 90 % of control
[19]
  T/C: 110 % of control

## S=c1nc[nH]c2c1ncn2C1CCCC1
[12]
  T/C: 104 % of control
[13]
  T/C: 95 % of control

## CC(=O)O[C@@]1(C)[C@@H](C)C(=O)O[C@@H]2CCN3CC=C(COC(=O)[C@]1(C)O)[C@H]23
dose: 25.0 mg/kg/injection, schedule: Q01DX010 (ip), vehicle: carboxymethylcellulose (CMC)
  T/C: 110 % of control
dose: 50.0 mg/kg/injection, schedule: Q01DX010 (ip), vehicle: carboxymethylcellulose (CMC)
  T/C: 95 % of control
dose: 100.0 mg/kg/injection, schedule: Q01DX010 (ip), vehicle: carboxymethylcellulose (CMC)
  T/C: 100 % of control

## N#CCCC(C#N)(CCC#N)c1ccc([N+](=O)[O-])cc1
[12]
  T/C: 92 % of control
[16]
  T/C: 101 % of control
[13]
  T/C: 92 % of control
[17]
  T/C: 100 % of control
[18]
  T/C: 92 % of control
[19]
  T/C: 102 % of control

## CC1(C)CN(Cc2ccccc2)C(C)(C)CN1
dose: 0.78 mg/kg/injection, schedule: Q01DX009 (ip), vehicle: saline with Tween-80
  T/C: 89 % of control
dose: 1.56 mg/kg/injection, schedule: Q01DX009 (ip), vehicle: saline with Tween-80
  T/C: 97 % of control
dose: 3.12 mg/kg/injection, schedule: Q01DX009 (ip), vehicle: saline with Tween-80
  T/C: 95 % of control
dose: 3.12 mg/kg/injection, schedule: Q04DX003 (ip), vehicle: saline with Tween-80
  T/C: 114 % of control
dose: 6.25 mg/kg/injection, schedule: Q01DX009 (ip), vehicle: saline with Tween-80
  T/C: 91 % of control
dose: 6.25 mg/kg/injection, schedule: Q04DX003 (ip), vehicle: saline with Tween-80
  T/C: 108 % of control
dose: 12.5 mg/kg/injection, schedule: Q04DX003 (ip), vehicle: saline with Tween-80
  T/C: 96 % of control
[15]
  T/C: 89 % of control

## COC(=O)C1C(O)C(C)C(O)C(C)(O)C=C(C)C2=C3C(=C(C)C(=O)c4c(O)c(c(C)c(OC(C)=O)c43)NC(=O)C(C)=C/C=C\C(C)(O)C(O)C(C)C1O)OCO2 (centres undefined)
[1]
  T/C: 119 % of control
[2]
  T/C: 110 % of control
[3]
  T/C: 116 % of control

## [I][Hg][CH2]C1COC([CH2][Hg][I])CO1 (centres undefined)
dose: 0.78 mg/kg/injection, schedule: Q01DX010 (ip), vehicle: saline
  T/C: 95 % of control
dose: 1.56 mg/kg/injection, schedule: Q01DX010 (ip), vehicle: saline
  T/C: 95 % of control and 118 % of control
dose: 3.13 mg/kg/injection, schedule: Q01DX010 (ip), vehicle: saline
  T/C: 100 % of control and 122 % of control
dose: 6.25 mg/kg/injection, schedule: Q01DX010 (ip), vehicle: saline
  T/C: 122 % of control
dose: 12.5 mg/kg/injection, schedule: Q01DX010 (ip), vehicle: saline
  T/C: 118 % of control
